Values of other authors, collected in patent publication US20210059962A1, “STIMULATION OF T REGULATORY CELLS BY CANNABIDIOL AS A MEANS OF TREATING ARTHRITIS AND AUTOIMMUNITY” (priority 2019, published 2021).

In the case of `C=C(C)[C@@H]1CCC(C)=C[C@H]1c1c(O)cc(CCCCC)cc1O` [CBD, 2-[3-methyl-6-(1-methylethenyl)-2-cyclohexen-1-yl]-5-pentyl-1,3-benzenedi-of], the IL-10 production (HUT-78 T-cells) is listed as “strongly inhibited”.

In the case of `CCCCCc1cc(O)c2c(c1)OC(C)(C)[C@@H]1CCC(C)=C[C@@H]21` [THC, delta9 tetrahydrocannabinol], the “constitutive production of IL-8” value (NK cells; constitutive) is given as “decreased”, the “constitutive production of MIP-lalpha” value (NK cells; constitutive) is given as “decreased” and the “constitutive production of MIP-lbeta” value (NK cells; constitutive) is given as “decreased”. The “constitutive production of RANTES” value (NK cells; constitutive) was “decreased”, the “phorbol ester stimulated production of GM-CSF” value (NK cells; phorbol ester stimulated) was “decreased” and the “phorbol ester stimulated production of IFN-gamma” value (NK cells; phorbol ester stimulated) was “decreased”. The “phorbol ester stimulated production of TNF-alpha” value (NK cells; phorbol ester stimulated) was “decreased”, the MIP-lbeta production (HTLV-1 positive B-cells) was “inhibited” and the IL-8 production (B-cells) was “tripled”. For the same compound, the MIP-1alpha production (B-cells) was “tripled”, the MIP-1beta production (B-cells) was “tripled” and the IL-8 production (eosinophilic cells) was “doubled”. For the same compound, the MIP-lbeta production (eosinophilic cells) was “tripled” and the IL-10 production (HUT-78 T-cells) was “strongly inhibited”.
